This is an account of results in patent publication US7872128B2, “Benzisoxazole and isoxazolo-pyridine compounds and method of use” (Amgen Inc., priority 2006, dated 2011).

A word on the IC50: it is the concentration that gives 50% inhibition.

T1 sequence (P10721 589-937 limits assumed): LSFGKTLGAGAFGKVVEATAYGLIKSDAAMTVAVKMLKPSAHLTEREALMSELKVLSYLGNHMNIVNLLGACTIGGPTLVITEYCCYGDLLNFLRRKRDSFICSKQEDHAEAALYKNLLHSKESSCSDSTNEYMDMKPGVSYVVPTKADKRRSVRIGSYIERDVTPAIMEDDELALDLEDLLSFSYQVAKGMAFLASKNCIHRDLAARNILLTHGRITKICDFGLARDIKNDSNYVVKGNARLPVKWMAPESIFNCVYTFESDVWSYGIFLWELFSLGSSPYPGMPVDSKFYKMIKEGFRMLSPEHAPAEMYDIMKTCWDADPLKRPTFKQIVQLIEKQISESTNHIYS

One test addresses T1, c-kit kinase enzyme (Homo sapiens, UniProt P10721).
T1 construct: c-kit (6.25 μM) (catalytic domain, N-terminal GST tagged, unphosphorylated); GST (N)
Put plainly: C-kit Homogeneous Time Resolved Fluorescent (HTRF) kinase assay. It is filed as biochemical. The following applies: read-out: average IC50 value, inhibition of the c-kit kinase enzyme. How it is done:
C-kit-Homogeneous Time Resolved Fluorescent (HTRF) Kinase Assay:
The purpose of this assay is to measure the inhibition of c-kit enzyme activity (autophosphorylation and phosphorylation of substrate) by small molecule test compounds. The c-kit HTRF assay begins with c-kit-catalyzed phosphorylation of biotinylated peptide Her-2 (N-GGMEDIYFEFMGGKKK-C) in the presence of ATP. The c-kit enzyme reaction is comprised of 1 μL of compound in 100% DMSO, 15 μL of 2× substrate mix (50 μM ATP and 2 μM biotinylated Her-2) and 15 μL of 2× c-kit (6.25 μM) (catalytic domain, N-terminal GST tagged, unphosphorylated) in 4 mM DTT all diluted in enzyme buffer (25 mM HEPES pH 7.5, 12.5 mM NaCl, 50 mM MgCl, 0.05% BSA). The reaction incubates for 90 min at RT. 160 Microliters of detection mixture containing 0.47 μg/mL steptavidin allophycocyanin and 29.7 pM europylated anti-phosphotyrosine Ab (PT66, Perkin Elmer) in HTRF buffer (100 mM Hepes pH 7.5, 100 mM NaCl, 0.1% BSA, 0.05% Tween 20) is then added to stop the reaction, by diluting out the enzyme as well as to enable quantitation of phosphorylated Her-2. After 3 h at RT, the detection reaction is read in a Packard Discovery™ (model BD1000) plate reader. The wells are excited with coherent […] light and the ratio of delayed ([…] post excitation) emissions at […] (native europium fluorescence) and 665 nm (europium fluorescence transferred to allophycocyanin—an index of substrate phosphorylation) is determined. The proportion of substrate phosphorylated in the kinase reaction in the presence of compound compared with that phosphorylated in the presence of DMSO vehicle alone (HI control) is calculated using the formula: % control (POC)=(cpd−average LO)/(average HI—average LO)*100. Data (consisting of POC and inhibitor concentration in μM) is fitted to a 4-parameter equation (y=A+((B−A)/(1+((x/C)^D))), where A is the minimum y (POC) value, B is the maximum y (POC), C is the x (compound concentration) at the point of inflection and D is the slope factor) using a Levenburg-Marquardt non-linear regression algorithm.
Background: TR-FRET usually uses a lanthanide donor and a delayed reading to cut background.
Consider `O=C(Nc1cncnc1)c1c(Cl)ccc2c(Nc3ccc(F)c(C(F)(F)F)c3)noc12` [Example 10, 6-chloro-3-(4-fluoro-3-(trifluoromethyl)phenylamino)-N-(pyrimidin-5-yl)benzo[d]isoxazole-7-carboxamide], for which the IC50 is ≤ 20 nM. On to `O=C(Nc1cncnc1)c1c(Cl)ccc2c(Nc3cc(F)cc(C(F)(F)F)c3)noc12` [Example 12, 6-chloro-3-(3-fluoro-5-(trifluoromethyl)phenylamino)-N-(pyrimidin-5-yl)benzo[d]isoxazole-7-carboxamide], for which the IC50 was ≤ 20 nM. Regarding `O=C(Nc1cncnc1)c1c(Cl)ccc2c(Nc3ccc(OC(F)(F)F)cc3)noc12` [Example 15, 6-chloro-N-(pyrimidin-5-yl)-3-(4-(trifluoromethoxy)phenylamino)benzo[d]isoxazole-7-carboxamide], the IC50 is ≤ 20 nM. As for `CCCc1ccc(Nc2noc3c(C(=O)Nc4cncnc4)c(Cl)ccc23)cc1` [Example 17, 6-chloro-3-(4-propylphenylamino)-N-(pyrimidin-5-yl)benzo[d]isoxazole-7-carboxamide], the IC50 is ≤ 20 nM.

A further test relates to SCF or GM-CSF-stimulated UT-7 cells. The test can be described thus: SCF and GM-CSF stimulated UT7 proliferation/survival assay. It is filed as cell-based. The following applies: Homo sapiens, UT7, 72 h, 3 days, ATP readout. The source says: SCF and GM-CSF Stimulated UT7 Proliferation/Survival Assay:
The purpose of this assay is to test the general anti-proliferative/cytotoxic effect of small molecule compounds on SCF or GM-CSF-stimulated UT-7 cells. Preventing SCF stimulated proliferation/survival is consistent with an on-mechanism effect whereas inhibition of GM-CSF driven proliferation/survival is indicative of off-target effects. UT-7 is a factor dependent human megakaryoblastic leukemia cell line that can be grown in either IL-3, GM-CSF, EPO or SCF (these cells have been confirmed to carry wild type c-kit receptor). Cells are maintained in growth media (IMDM, 10% HI-FBS, 1×PGS, 1 ng/mL GM-CSF). To measure SCF or GM-CSF-induced proliferation, cells are washed and re-suspended to 5e4c/mL in assay media (RPMI 1640/4% HI-FBS, 1×PGS) and plated at 50 uL/well for 2500c/well. Small molecule compounds are first diluted in 100% DMSO, then diluted 1:4 in RT assay media. 5 Microliters of 11×SCF (55 ng/mL) or 11×GM-CSF (11 ng/mL) in assay media plus 1 μL of diluted drug are added to the cell plates. The treated cells are incubated in a 37° C. humidified incubator with 5% CO2 for 3 days. The amount of ATP is then measured as a surrogate marker for cell viability. This is accomplished by adding 50 μL of Perkin Elmer ATP 1 step reagent (as per instructed in the reagent manual, Cat. No. 6016739), incubating at RT for 15 min and reading the luminescence with a Perkin Elmer Topcount NXT™HTS (model c384) plate reader. The amount of SCF or GM-CSF stimulated viable cells in the presence of compound compared with in the presence of vehicle alone (HI control) is calculated using the formula: % control (POC)=(cpd−average LO)/(average HI−average LO)*100. Data (consisting of POC and inhibitor concentration in μM) is fitted to a 4-parameter equation (y=A+((B−A)/(1+((x/C)^D))), where A is the minimum y (POC) value, B is the maximum y (POC), C is the x (cpd concentration) at the point of inflection and D is the slope factor) using a Levenburg-Marquardt non-linear regression algorithm.
With `O=C(Nc1cncnc1)c1c(Cl)ccc2c(Nc3ccc(C(F)(F)F)cc3)noc12` [Example 5, 6-chloro-N-(pyrimidin-5-yl)-3-(4-(trifluoromethyl)phenylamino)benzo[d]isoxazole-7-carboxamide], the IC50 was ≤ 20 nM.

Turning to `CCCc1ccc(Nc2noc3c(C(=O)Nc4cncnc4)c(Cl)ccc23)cc1` [Example 17, 6-chloro-3-(4-propylphenylamino)-N-(pyrimidin-5-yl)benzo[d]isoxazole-7-carboxamide], the IC50 is ≤ 20 nM. Turning to `CCCCc1ccc(Nc2noc3c(C(=O)Nc4cncnc4)c(Cl)ccc23)cc1` [Example 18, 3-(4-butylphenylamino)-6-chloro-N-(pyrimidin-5-yl)benzo[d]isoxazole-7-carboxamide], the IC50 was ≤ 20 nM.
